These results are taken from ChEMBL document CHEMBL3525960, “Role of catechol-O-methyltransferase in the disposition of luteolin in rats” (Drug Metab Dispos, 2011).

One data set deals with Liver microsome. As to the kind of experiment: Stability in Sprague-Dawley rat liver microsomes at 10 uM after 10 to 30 mins by HPLC analysis. In kind it is ADME. On the technique in general: Liver microsomes are vesicles of endoplasmic reticulum, rich in cytochrome P450 enzymes.
Data set [1] can be described thus: AUC (0 to t) in Sprague-Dawley rat treated with luteolin at 6.5 mg/kg, iv. The data set is classed as ADME, organism-based. The arrangement: dose 6.5 mg/kg, route intravenous. The following applies: plasma.
Data set [2] has as its system Kidney. Kind of data set: Drug metabolism in Sprague-Dawley rat kidney homogenate treated with luteolin at 20 uM after 20 to 60 mins in presence of COMT inhibitor entacapone. The following applies: tissue homogenate. The data set is classed as ADME, tissue-based.
Data set [3] in a line: Cmax in Sprague-Dawley rat treated with luteolin at 6.5 mg/kg, iv. In kind it is ADME, organism-based. On the set-up: dose 6.5 mg/kg, route intravenous. The following applies: in vivo.
Data set [4] is described as follows: AUC (0 to infinity) in Sprague-Dawley rat treated with luteolin at 6.5 mg/kg, iv. The data set is classed as ADME, organism-based. On the set-up: time infinity, dose 6.5 mg/kg, route intravenous. The following applies: plasma.
A short description of data set [5]: Drug excretion in Sprague-Dawley rat urine treated with luteolin at 6.5 mg/kg, iv after 24 hrs. The data set is classed as ADME, organism-based. On the set-up: dose 6.5 mg/kg, route intravenous. The following applies: read-out: Drug excretion.
Data set [6] concerns Small intestine. As to the kind of experiment: Drug metabolism in Sprague-Dawley rat small intestine homogenate treated with luteolin at 20 uM after 20 to 60 mins in presence of COMT inhibitor entacapone. The data set is classed as ADME, tissue-based. The note with it: tissue homogenate.
Data set [7] in a line: Drug excretion in Sprague-Dawley rat urine treated with luteolin at 6.5 mg/kg, iv after 24 hrs co-treated with COMT inhibitor entacapone. The data set is classed as ADME, organism-based. On the set-up: dose 6.5 mg/kg, route intravenous. The note with it: read-out: Drug excretion.
A short description of data set [8]: Mean residence time (0 to t) in Sprague-Dawley rat treated with luteolin at 6.5 mg/kg, iv. The data set is classed as ADME, organism-based. The arrangement: dose 6.5 mg/kg, route intravenous. The note with it: in vivo.
Data set [9] in a line: Mean residence time (0 to infinity) in Sprague-Dawley rat treated with luteolin at 6.5 mg/kg, iv. On the set-up: dose 6.5 mg/kg, route intravenous. The note with it: in vivo. In kind it is ADME, organism-based.
The nature of data set [10]: Drug metabolism in Sprague-Dawley rat erythrocytes homogenate treated with luteolin at 20 uM after 20 to 60 mins in presence of COMT inhibitor entacapone. In kind it is ADME, cell-based. The note with it: erythrocyte.
Data set [11] concerns Kidney. Kind of data set: Drug metabolism in Sprague-Dawley rat kidney homogenate treated with luteolin at 20 uM after 20 to 60 mins. The data set is classed as ADME, tissue-based. The note with it: tissue homogenate.
Another data set has as its system Rattus norvegicus. Kind of data set: Clearance in Sprague-Dawley rat treated with luteolin at 6.5 mg/kg, iv. The data set is classed as ADME, organism-based. On the set-up: dose 6.5 mg/kg, route intravenous. The following applies: in vivo.
A short description of data set [12]: Half life in Sprague-Dawley rat treated with luteolin at 6.5 mg/kg, iv. On the set-up: dose 6.5 mg/kg, route intravenous. In kind it is ADME, organism-based. The following applies: in vivo.
Data set [13] in a line: Drug metabolism in Sprague-Dawley rat erythrocytes homogenate treated with luteolin at 20 uM after 20 to 60 mins. In kind it is ADME, cell-based. The following applies: erythrocyte.
Data set [14] has as its system Small intestine. Kind of data set: Drug metabolism in Sprague-Dawley rat small intestine homogenate treated with luteolin at 20 uM after 20 to 60 mins. In kind it is ADME, tissue-based. The following applies: tissue homogenate.
Data set [15] is described as follows: Volume of distribution in Sprague-Dawley rat treated with luteolin at 6.5 mg/kg, iv. The data set is classed as ADME, organism-based. The arrangement: dose 6.5 mg/kg, route intravenous. The following applies: in vivo.
Data set [16] relates to Lung. As to the kind of experiment: Drug metabolism in Sprague-Dawley rat lung homogenate treated with luteolin at 20 uM after 20 to 60 mins in presence of COMT inhibitor entacapone. In kind it is ADME, tissue-based. The following applies: tissue homogenate.
Data set [17] in a line: Drug recovery in Sprague-Dawley rat urine assessed as retention time treated with luteolin at 6.5 mg/kg, iv by reverse-phase HPLC method. The data set is classed as ADME, organism-based. The arrangement: dose 6.5 mg/kg, route intravenous. The note with it: in vivo.
Data set [18] concerns Liver. Kind of data set: Drug metabolism in Sprague-Dawley rat liver homogenate treated with luteolin at 20 uM after 20 to 60 mins. The data set is classed as ADME, tissue-based. The following applies: tissue homogenate.
The subject of data set [19] is Lung. Kind of data set: Drug metabolism in Sprague-Dawley rat lung homogenate treated with luteolin at 20 uM after 20 to 60 mins. In kind it is ADME, tissue-based. The following applies: tissue homogenate.
Data set [20] has as its system Liver. As to the kind of experiment: Drug metabolism in Sprague-Dawley rat liver homogenate treated with luteolin at 20 uM after 20 to 60 mins in presence of COMT inhibitor entacapone. In kind it is ADME, tissue-based. The following applies: tissue homogenate.

Broadly, the AUC(0-t) is the area under the concentration-time curve up to a stated or last time point. Low values mean less exposure, high ones more exposure. As usually defined, the Cmax is the maximum level reached in the sampled fluid or tissue. The term AUC(0-inf) denotes total exposure, with the tail of the curve extrapolated. As a reminder, the MRT last is a mean duration of stay, worked out from the concentration-time curve. A word on the MRT inf: it is a mean duration of stay, worked out from the concentration-time curve. Broadly, the clearance is the rate of elimination divided by the concentration. The low end stands for a low capacity for elimination, the high end for a high capacity for elimination. As a reminder, the half-life is the time in which the quantity being followed falls by half. A lower half-life goes with rapid decline. One may read the Vd as the apparent volume that relates the amount in the body to the concentration in plasma or blood. A low value points to confinement near the circulation.

For the compound `COc1cc(-c2cc(=O)c3c(O)cc(O)cc3o2)ccc1O` [CHRYSOERIOL], in the data set on Liver microsome, the Stability entry was “Unstable”. Also, the AUC(0-t) in data set [1] is 2090 ng·h/mL. For the same compound, the Drug metabolism result with Kidney [2] is “metabolite_not_detected”; in the data set on Small intestine [6] it was “metabolite_not_detected”; in [10] it was “metabolite_not_detected”; in the data set with Kidney [11], “metabolite_detected”; in [13] it was “metabolite_detected”; in the data set with Small intestine [14], “metabolite_detected”. Also, the Drug metabolism entry is reported as “metabolite_not_detected” in the data set with Lung [16], “metabolite_detected” in the data set with Liver [18], “metabolite_detected” in the data set with Lung [19] and “metabolite_not_detected” with Liver [20]. In [3], this compound gave a Cmax of 2060 ng/mL. The compound also registered an AUC(0-inf) in data set [4] of 2280 ng·h/mL. In addition, the dose excreted at 24 h in data set [5] was determined as 1.92%; in [7], 0.451%. In data set [8], this compound gave an MRT last of 1.24 h. For the same compound, in [9], the MRT inf stood at 1.76 h. Also, the clearance in the data set on Rattus norvegicus stood at 49 mL/min/kg. Also, the half-life in data set [12] was 1.57 h. Besides, the Vd in [15] is 6.34 L/kg. The Retention_time in data set [17] stood at 29.35 min.
